Measured values taken from EP0530446A2, “Use of sulfur containing carboxylic acids for combatting pathophysiologic excitatory disorders and related diseases as well as allergic diseases and their preparation as medicament” (ASTA Medica Aktiengesellschaft, priority 1991, dated 1993).

Assays:
EEG der Ratte = test: Tele-Stereo-EEG in the rat: prevention of EEG changes caused by hypoglycaemic or ischaemic insult; type: in vivo; conditions: 30 mg/kg i.p., compared with pre-dose value (Vorwert)
Description: Die erfindungsgemäßen Verbindungen der Formel zeigen beispielsweise im Modell zum Nachweis der Prevention der durch hypoglykämischen beziehungsweise ischämischen Insult verursachte Veränderungen im EEG der Ratte (im Vergleich zum Vorwert) bei der parenteralen Applikation (i.p. = intraperitoneal) bei 30 mg/kg (i.p.) des Racemats der alpha-Liponsäure 118 %, bei 30 mg/kg i.p. des (+)-Enantiomers 157 % und bei 30 mg/kg i.p. des (-)-Enantiomers 85 % Änderung der Leistungsdichte des beta-2-Bandes im frontalen Kortex.
Diese Untersuchung erfolgte analog der Methode Dimpfel et al, Neuropsychobiology 16: 163 - 168, (1986) mit der Änderung, daß die Ableitung vom Hippokampus anstelle des Thalamus erfolgt. (Radioelectroencephalography (Tele-Stereo-EEG) in the rat as a pharmacological model to differentiate the central action of flupirtine from that of opiates, diazepam and phenobarbital)
Männliche Fischer-344 Ratten wurden im Alter von 4 bis 5 Monaten 4 bipolar konzentrische Elektroden zusammen mit einem Mikrostecker auf einer gemeinsamen Basisplatte implantiert. Der Stecker diente der Aufnahme eines 4-Kanal-Senders zur telemetrischen Übertragung der aus frontalem Kortex, Hippokampus, Striatum und Formatio Reticularis abgeleiteten Feldpotentiale. Die Signale wurden auf einem Pro Science Computer System in Echtzeit einer Fast Fourier Transformation unterworfen und die Leistungsdichtespektren jeweils über 15 Minuten gemittelt. Die Unterteilung der Spektren in 6 verschiedene Frequenzbereiche erlaubte die Erfassung pharmakonspezifischer Veränderungen in Bezug auf die jeweils vor der Applikation gemessenen Vorwerte innerhalb dieser Frequenzbänder.
Zum Applikationsprotokoll der Substanzen: Die Substanzen wurden intraperitoneal 45 Minuten nach Beginn der Messungen (Vorwert) injiziert. Fünf Minuten später wurden die Messungen wieder gestartet, mindestens über die nächsten 2 Stunden kontinuierlich analysiert und in 15-minütigen Perioden zusammengefaßt. Die Testsubstanzen (zum Beispiel Thioctsäure) wurden in einer Dosierung von 30 mg/kg appliziert. […]

[1] = test system: PAF (Platelet-activating-Factor)-Acether-Ödem; test: PAF-acether paw oedema in the rat; type: in vivo, Ratte; conditions: 0.5 h before PAF-acether 2 ug/animal subplantar, oedema read 1 h later
Description: Die antiallergische Wirkung wird unter anderem durch Untersuchungen im PAF (Platelet-activating-Factor)-Acether-Ödem an der Ratte belegt.
Prinzip der Methode ist es, durch subplantare Injektion von PAF-Acether 2 ug/Tier ein lokal begrenztes Ödem beziehungsweise eine Entzündung an der Rattenpfote zu erzeugen. Die Untersuchungen werden in Anlehnung an die Methode nach SWINGLE und REITER (Agents and actions, 18, 358-365, (1986)) durchgeführt. Die Tiere erhalten die Prüfsubstanzen 0,5 Stunden vor der Auslösung des Ödems verabreicht. 1 Stunde danach wird das Ödem plethysmographisch ermittelt.

[2] = test system: Hippocampusschnitt-Präparat von ethanolabhängigen Ratten; test: Hippocampal slice preparation of ethanol-dependent rats after 16 h withdrawal, excitability at decreasing Mg++; conditions: slices 16 h after ethanol withdrawal (5 g/kg/day for 2 weeks), tested at 246 pg/ml
Excerpt: Die bei Ratten 16 Stunden nach dem Absetzen von Ethanol (5 g/kg/Tag Ethanol über einen Zeitraum von 2 Wochen) aus dem Hippocampus entnommenen Präparate wurden abnehmenden Magnesiumkonzentrationen im Superfusionsmedium ausgesetzt, um Plasizitätsveränderungen bei der Erregbarkeit der Pyramidenzellen nachweisen zu können. Die elektrisch ausgelösten und spontanen Entladungen wurden in Abwesenheit und Gegenwart der S(-)-Form der a-Liponsäure beobachtet.
Zwei Gruppen ausgewachsener, männlicher CD-Ratten (Charles River Wiga) erhielten handelsübliches Rattenfutter ad libitum. Das Trinkwasser wurde durch den Zusatz von 1 g Glukose/Liter gesüßt. Eine der Gruppen erhielt Wasser, das 5 % Ethanol enthielt. Die von den Tieren aufgenommene Wassermenge wurde täglich bestimmt und betrug in beiden Gruppen durchschnittlich 40 ml. Folglich nahm die Ethanolgruppe während des zweiwöchigen Versuches - ausgehend von ihrem durchschnittlichen Gewicht - innerhalb von 24 Stunden etwa 5 g/kg Ethanol auf.
Den Tieren wurde das modifizierte Trinkwasser über einen Zeitraum von 2 Wochen verabreicht. Außerdem wurde das Körpergewicht täglich ermittelt, wobei zwischen den beiden Gruppen keine Differenz beobachtet werden konnte. 16 Stunden vor Beginn der Messung der Erregbarkeit ex vivo erhielten die mit dem Ethanol behandelten Tiere ebenfalls glukosehaltiges Trinkwasser, um den Entzug einzuleiten. […]

[3] = test system: Hippocampusschnitt-Präparat von morphiumabhängigen Ratten; test: Hippocampal slice preparation of morphine-dependent rats after 16 h withdrawal, excitability at decreasing Mg++; conditions: slices 16 h after morphine withdrawal (2 mg/kg s.c. twice daily for 2 weeks), tested at 100 µM
Description: Die bei Ratten 16 Stunden nach dem Entzug von Morphium (2 mg/kg Morphium subcutan, 2 x täglich über 2 Wochen lang) aus dem Hippocampus entnommenen Präparate wurden abnehmenden Magnesiumkonzentrationen im Superfusionsmedium ausgesetzt, um Platizitätsveränderungen bei der Erregbarkeit der Pyramidenzellen nachweisen zu können. Die elektrisch ausgelösten und spontanen Entladungen wurden in Abwesenheit und Gegenwart der S(-)-Form der a-Liponsäure beobachtet. […] Hierdurch ergibt sich eine Anwendung/Verwendung von a-Liponsäure bei Entziehungserscheinungen bei Drogenabhängigkeit.
Zwei Gruppen ausewachsener, männlicher CD-Ratten (Charles River Wiga) erhielten handelübliches Rattenfutter ad libitum. In den beiden Versuchwochen erhielten die Tiere der ersten Gruppe zweimal täglich 2 mg/kg Morphium. Der Kontrollgruppe wurde Kochsalzlösung injiziert. Das Körpergewicht wurde täglich registriert. 16 Stunden vor Beginn der Messung der Erregbarkeit ex vivo erhielten die mit Morphium behandelten Tiere keine Injektion mehr, um den Entzug einzleiten.
Die Tiere wurden in leichter Narkose ausgeblutet, das Gehirn wurde in toto entnommen und die Formatio hippocampi unter stereomikroskopischer Kontrolle isoliert. […]

O=C(O)CCCCC1CCSS1 (racemic) [α-Liponsäure, reference compound]
Änderung der Leistungsdichte des beta-2-Bandes im frontalen Kortex (EEG der Ratte): 118% | Ödemhemmung in % ([1]; 25 mg/kg intraperitoneal): 14% | Ödemhemmung in % ([1]; 50 mg/kg intraperitoneal): 16%

O=C(O)CCCC[C@@H]1CCSS1 [(+)-Enantiomers, R(+)-a-Liponsäure]
Änderung der Leistungsdichte des beta-2-Bandes im frontalen Kortex (EEG der Ratte): 157%

O=C(O)CCCC[C@H]1CCSS1 [(-)-Enantiomers, S(-)-a-Liponsäure]
Änderung der Leistungsdichte des beta-2-Bandes im frontalen Kortex (EEG der Ratte): 85% | ausgelöste Entladungen [2]: vollständige Dämpfung | spontane Entladungen ([3]; decreasing Mg++): abzuschwächen | Spitzenamplituden der Population ([3]; lower Mg++ concentrations): auf Normalwerte zu senken

O=C(O)CCCCC(S)CCS (stereo not shown) [Dihydroliponsäure, 6,8-Dimercapto-octansäure]
Ödemhemmung in % ([1]; 50 mg/kg intraperitoneal): 63% | Ödemhemmung in % ([1]; 200 mg/kg intraperitoneal): 73%
